Experimental data as given in patent US5389627A, “Cephem compounds” (priority 1993, dated 1995).
Converted amounts (≈) assume the structure as drawn.

What was measured:
[1] = Pharmacokinetics (plasma half-life); assay type: in vivo; conditions: SD Rat, mean value, read-out: Half-Life (T1/2)
Procedure: In order to investigate the pharmacokinetics properties of the compounds according to the present invention, the plasma half-life was determined in accordance with the method described in Antimicrobial Agents and Chemotherapy, 26(2), p.

K.pneumoniae ATCC10031 = test: In vitro antibacterial activity, minimum inhibitory concentration; assay type: cell-based; conditions: Klebsiella pneumoniae; K.pneumoniae ATCC10031; read-out: Minimum Inhibitory Concentration (MIC)
Description: (§1) As reference compounds, Cefotaxime (CTX), Ceftazidime (CAZ) and Cefpirome (CPR) were employed.

S.epidermidis ATCC12228 = test: as above; assay type: cell-based; conditions: Staphylococcus epidermidis; S.epidermidis ATCC12228; read-out: Minimum Inhibitory Concentration (MIC)
Description: as §1

S.Faecalis ATCC29212 = test: as above; assay type: cell-based; conditions: Enterococcus faecalis
Description: as §1

S.aureus Smith = test: as above; assay type: cell-based; conditions: Staphylococcus aureus; S.aureus Smith; read-out: Minimum Inhibitory Concentration (MIC)
Description: as §1

K.oxytoca C4022 = test: as above; assay type: cell-based; conditions: Klebsiella oxytoca; K.oxytoca C4022; read-out: Minimum Inhibitory Concentration (MIC)
Description: as §1

P.aeruginosa C2027 = test: as above; assay type: cell-based; conditions: Pseudomonas aeruginosa; P.aeruginosa C2027; read-out: Minimum Inhibitory Concentration (MIC)
Description: as §1

P.aeruginosa ATCC27853 = test: as above; assay type: cell-based; conditions: Pseudomonas aeruginosa; P.aeruginosa ATCC27853; read-out: Minimum Inhibitory Concentration (MIC)
Description: as §1

E.coli ATCC10536 = test: as above; assay type: cell-based; conditions: Escherichia coli; E.coli ATCC10536; read-out: Minimum Inhibitory Concentration (MIC)
Description: as §1

P.aeruginosa ATCC10145 = test: as above; assay type: cell-based; conditions: Pseudomonas aeruginosa; P.aeruginosa ATCC10145; read-out: Minimum Inhibitory Concentration (MIC)
Description: as §1

E.coli ATCC25922 = test: as above; assay type: cell-based; conditions: Escherichia coli; E.coli ATCC25922; read-out: Minimum Inhibitory Concentration (MIC)
Description: as §1

E.cloacae C4009 = test: as above; assay type: cell-based; conditions: Enterobacter cloacae; E.cloacae C4009; read-out: Minimum Inhibitory Concentration (MIC)
Description: as §1

MRSA C2208 = test: as above; assay type: cell-based; conditions: Staphylococcus aureus; MRSA C2208; read-out: Minimum Inhibitory Concentration (MIC)
Description: as §1

P.mirabilis ATCC25933 = test: as above; assay type: cell-based; conditions: Proteus mirabilis; P.mirabilis ATCC25933; read-out: Minimum Inhibitory Concentration (MIC)
Description: as §1

S.pyogenes C4003 = test: as above; assay type: cell-based; conditions: Streptococcus pyogenes; S.pyogenes C4003; read-out: Minimum Inhibitory Concentration (MIC)
Description: as §1

S.marcescens C1052 = test: as above; assay type: cell-based; conditions: Serratia marcescens; S.marcescens C1052; read-out: Minimum Inhibitory Concentration (MIC)
Description: as §1

K.pneumoniae C1040 = test: as above; assay type: cell-based; conditions: Klebsiella pneumoniae; K.pneumoniae C1040; read-out: Minimum Inhibitory Concentration (MIC)
Description: as §1

E.cloacae C4008 = test: as above; assay type: cell-based; conditions: Enterobacter cloacae; E.cloacae C4008; read-out: Minimum Inhibitory Concentration (MIC)
Description: as §1

S.aureus ATCC29213 = test: as above; assay type: cell-based; conditions: Staphylococcus aureus; S.aureus ATCC29213; read-out: Minimum Inhibitory Concentration (MIC)
Description: as §1

S.pyogenes ATCC 8668 = test: as above; assay type: cell-based; conditions: Streptococcus pyogenes, ATCC8668; S.pyogenes ATCC 8668; read-out: Minimum Inhibitory Concentration (MIC)
Description: as §1

S.typhimurium C4045 = test: as above; assay type: cell-based; conditions: Salmonella enterica; S.typhimurium C4045; read-out: Minimum Inhibitory Concentration (MIC)
Description: as §1

E.coli C4002 = test: as above; assay type: cell-based; conditions: Escherichia coli; E.coli C4002; read-out: Minimum Inhibitory Concentration (MIC)
Description: as §1

P.aeruginosa C4070 = test: as above; assay type: cell-based; conditions: Pseudomonas aeruginosa; P.aeruginosa C4070; read-out: Minimum Inhibitory Concentration (MIC)
Description: as §1

S.marcescens ATCC27117 = test: as above; assay type: cell-based; conditions: Serratia marcescens; S.marcescens ATCC27117; read-out: Minimum Inhibitory Concentration (MIC)
Description: as §1

S.aureus C4036 = test: as above; assay type: cell-based; conditions: Staphylococcus aureus; S.aureus C4036; read-out: Minimum Inhibitory Concentration (MIC)
Description: as §1

P.rettgeri ATCC9919 = test: as above; assay type: cell-based; conditions: Providencia rettgeri; P.rettgeri ATCC9919; read-out: Minimum Inhibitory Concentration (MIC)
Description: as §1

CO/N=C(\C(=O)N[C@@H]1C(=O)N2C(C(=O)[O-])=C(C[n+]3ccc4[nH]c(=O)[nH]c4c3)CS[C@H]12)c1nsc(N)n1 [Ex. 5, 7-β-[(Z)-2-(5-Amino-1,2,4-thiadiazol-3-yl)-2-methoxyiminoacetamido]-3-[2-(1H,3H)-oxo-imidazo[4,5-c]pyridiniummethyl]-3-cephem-4-carboxylate]
half-life [1]: 24 min | MIC (K.pneumoniae ATCC10031): 0.004 µg/mL (≈ 0.00753 µM) | MIC (S.epidermidis ATCC12228): 0.78 µg/mL (≈ 1.47 µM) | MIC (S.Faecalis ATCC29212): > 100 µg/mL | MIC (S.aureus Smith): 1.56 µg/mL (≈ 2.93 µM) | MIC (K.oxytoca C4022): 0.78 µg/mL (≈ 1.47 µM) | MIC (P.aeruginosa C2027): 0.78 µg/mL (≈ 1.47 µM) | MIC (P.aeruginosa ATCC27853): 0.78 µg/mL (≈ 1.47 µM) | MIC (E.coli ATCC10536): 0.004 µg/mL (≈ 0.00753 µM) | MIC (P.aeruginosa ATCC10145): 1.56 µg/mL (≈ 2.93 µM) | MIC (E.coli ATCC25922): 0.013 µg/mL (≈ 0.0245 µM) | MIC (E.cloacae C4009): 0.007 µg/mL (≈ 0.0132 µM) | MIC (MRSA C2208): > 100 µg/mL | MIC (P.mirabilis ATCC25933): 0.025 µg/mL (≈ 0.047 µM) | MIC (S.pyogenes C4003): 0.013 µg/mL (≈ 0.0245 µM) | MIC (S.marcescens C1052): 0.025 µg/mL (≈ 0.047 µM) | MIC (K.pneumoniae C1040): 0.004 µg/mL (≈ 0.00753 µM) | MIC (E.cloacae C4008): 0.002 µg/mL (≈ 0.00376 µM) | MIC (S.aureus ATCC29213): 1.56 µg/mL (≈ 2.93 µM) | MIC (S.pyogenes ATCC 8668): 0.013 µg/mL (≈ 0.0245 µM) | MIC (S.typhimurium C4045): 0.007 µg/mL (≈ 0.0132 µM) | MIC (E.coli C4002): 0.007 µg/mL (≈ 0.0132 µM) | MIC (P.aeruginosa C4070): 1.56 µg/mL (≈ 2.93 µM) | MIC (S.marcescens ATCC27117): 0.007 µg/mL (≈ 0.0132 µM) | MIC (S.aureus C4036): 1.56 µg/mL (≈ 2.93 µM) | MIC (P.rettgeri ATCC9919): 0.007 µg/mL (≈ 0.0132 µM)

Nc1nc(/C(=N/OCC(=O)O)C(=O)N[C@@H]2C(=O)N3C(C(=O)[O-])=C(C[n+]4ccc5[nH]c(=O)[nH]c5c4)CS[C@H]23)ns1 [Ex. 8, 7-β-[(Z)-2-(5-Amino-1,2,4-thiadiazol-3-yl)-2-carboxymethoxyiminoacetamido]-3-[2-(1H,3H)-oxo-imidazo[4,5-c]pyridiniummethyl]-3-cephem-4-carboxylate]
MIC (K.pneumoniae ATCC10031): 0.013 µg/mL (≈ 0.0226 µM) | MIC (S.epidermidis ATCC12228): 1.56 µg/mL (≈ 2.71 µM) | MIC (S.Faecalis ATCC29212): > 100 µg/mL | MIC (S.aureus Smith): 3.13 µg/mL (≈ 5.44 µM) | MIC (K.oxytoca C4022): 0.782 µg/mL (≈ 1.36 µM) | MIC (P.aeruginosa C2027): 3.13 µg/mL (≈ 5.44 µM) | MIC (P.aeruginosa ATCC27853): 3.13 µg/mL (≈ 5.44 µM) | MIC (E.coli ATCC10536): 0.013 µg/mL (≈ 0.0226 µM) | MIC (P.aeruginosa ATCC10145): 3.13 µg/mL (≈ 5.44 µM) | MIC (E.coli ATCC25922): 0.05 µg/mL (≈ 0.0869 µM) | MIC (E.cloacae C4009): 0.013 µg/mL (≈ 0.0226 µM) | MIC (MRSA C2208): > 100 µg/mL | MIC (P.mirabilis ATCC25933): 0.05 µg/mL (≈ 0.0869 µM) | MIC (S.pyogenes C4003): 0.196 µg/mL (≈ 0.341 µM) | MIC (S.marcescens C1052): 0.2 µg/mL (≈ 0.347 µM) | MIC (K.pneumoniae C1040): 0.05 µg/mL (≈ 0.0869 µM) | MIC (E.cloacae C4008): 0.013 µg/mL (≈ 0.0226 µM) | MIC (S.aureus ATCC29213): 0.78 µg/mL (≈ 1.36 µM) | MIC (S.pyogenes ATCC 8668): 0.1 µg/mL (≈ 0.174 µM) | MIC (S.typhimurium C4045): 0.05 µg/mL (≈ 0.0869 µM) | MIC (E.coli C4002): 3.13 µg/mL (≈ 5.44 µM) | MIC (P.aeruginosa C4070): 6.25 µg/mL (≈ 10.9 µM) | MIC (S.marcescens ATCC27117): 0.1 µg/mL (≈ 0.174 µM) | MIC (S.aureus C4036): 1.56 µg/mL (≈ 2.71 µM) | MIC (P.rettgeri ATCC9919): 0.025 µg/mL (≈ 0.0434 µM)

Nc1nc(/C(=N/OCF)C(=O)N[C@@H]2C(=O)N3C(C(=O)[O-])=C(C[n+]4ccc5[nH]c(=O)[nH]c5c4)CS[C@H]23)ns1 [Ex. 9, 7-β-[(Z)-2-(5-Amino-1,2,4-thiadiazol-3-yl)-2-fluoromethoxyiminoacetamido]-3-[2-(1H, 3H)-oxo-imidazo[4,5-c]pyridiniummethyl]-3-cephem-4-carboxylate]
MIC (K.pneumoniae ATCC10031): 0.002 µg/mL (≈ 0.00364 µM) | MIC (S.epidermidis ATCC12228): 0.78 µg/mL (≈ 1.42 µM) | MIC (S.Faecalis ATCC29212): > 100 µg/mL | MIC (S.aureus Smith): 1.56 µg/mL (≈ 2.84 µM) | MIC (K.oxytoca C4022): 1.56 µg/mL (≈ 2.84 µM) | MIC (P.aeruginosa C2027): 0.78 µg/mL (≈ 1.42 µM) | MIC (P.aeruginosa ATCC27853): 0.78 µg/mL (≈ 1.42 µM) | MIC (E.coli ATCC10536): 0.007 µg/mL (≈ 0.0127 µM) | MIC (P.aeruginosa ATCC10145): 1.56 µg/mL (≈ 2.84 µM) | MIC (E.coli ATCC25922): 0.026 µg/mL (≈ 0.0473 µM) | MIC (E.cloacae C4009): 0.013 µg/mL (≈ 0.0237 µM) | MIC (MRSA C2208): > 100 µg/mL | MIC (P.mirabilis ATCC25933): 0.025 µg/mL (≈ 0.0455 µM) | MIC (S.pyogenes C4003): 0.007 µg/mL (≈ 0.0127 µM) | MIC (S.marcescens C1052): 0.004 µg/mL (≈ 0.00728 µM) | MIC (K.pneumoniae C1040): 0.004 µg/mL (≈ 0.00728 µM) | MIC (E.cloacae C4008): 0.013 µg/mL (≈ 0.0237 µM) | MIC (S.aureus ATCC29213): 1.56 µg/mL (≈ 2.84 µM) | MIC (S.pyogenes ATCC 8668): 0.007 µg/mL (≈ 0.0127 µM) | MIC (S.typhimurium C4045): 0.007 µg/mL (≈ 0.0127 µM) | MIC (E.coli C4002): 0.004 µg/mL (≈ 0.00728 µM) | MIC (P.aeruginosa C4070): 3.13 µg/mL (≈ 5.7 µM) | MIC (S.marcescens ATCC27117): 0.007 µg/mL (≈ 0.0127 µM) | MIC (S.aureus C4036): 3.13 µg/mL (≈ 5.7 µM) | MIC (P.rettgeri ATCC9919): 0.004 µg/mL (≈ 0.00728 µM)
